Source: patent US6224849A, “Alkylaminobenzothiazole and-benzoxazole derivatives” (Janssen Pharmaceutica N.V., priority 1996, dated 2001)

Target: T1, cloned human D4 receptors (Homo sapiens, UniProt P21917)
T1 construct: purchased Receptor Biology, Maryland, USA; host or cells: transfected Chinese Hamster Ovary (CHO) cells (membrane preparation)
T1 sequence (P21917 1-419): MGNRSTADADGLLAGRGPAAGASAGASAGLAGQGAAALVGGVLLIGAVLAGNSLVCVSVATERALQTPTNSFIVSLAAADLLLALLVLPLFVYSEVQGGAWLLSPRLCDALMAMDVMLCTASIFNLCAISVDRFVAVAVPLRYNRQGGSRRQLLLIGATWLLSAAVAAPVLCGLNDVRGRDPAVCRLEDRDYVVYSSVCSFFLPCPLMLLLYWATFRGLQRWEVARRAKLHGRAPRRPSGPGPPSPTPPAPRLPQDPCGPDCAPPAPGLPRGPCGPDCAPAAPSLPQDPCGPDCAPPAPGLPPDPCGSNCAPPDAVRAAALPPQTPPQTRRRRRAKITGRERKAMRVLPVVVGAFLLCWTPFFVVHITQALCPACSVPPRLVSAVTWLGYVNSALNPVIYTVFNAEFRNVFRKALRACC
Assay: In vitro radioligand binding affinity for dopamine D4 receptor (3H-spiperone competition, transfected CHO cell membranes)
Conditions: membranes of transfected CHO cells expressing cloned human D4 receptors, read-out: pIC50 (-log IC50), dopamine D4 receptor (converted)
Protocol: In vitro binding affinity for dopamine D4 receptor
The interaction of the compounds of formula (I) with the dopamine D4 receptors was assessed in in vitro radioligand binding experiments.
A low concentration of ^3 H-spiperone with a high binding affinity for the dopamine D4 receptor was incubated with a sample of a membrane preparation of transfected Chinese Hamster Ovary (CHO) cells which express cloned human D4 receptors (Receptor Biology, Maryland, USA) in a buffered medium. When equilibrium of binding was reached, the receptor bound radioactivity was separated from the non-bound radioactivity, and the receptor bound activity was counted. The interaction of the test compounds, added to the incubation mixture in various concentrations, with the dopamine D4 receptor was assessed in competition binding experiments as described by Schotte et al. (Psychopharmacology, 1996, 124, 57-73).

Compound	IC50 [µM]
CN(CCN1CCN(c2ccc(Cl)c(Cl)c2)CC1)c1nc2ccccc2s1 [Compound 101]	≤ 0.1
CN(CCCN1CCN(c2ccc(Cl)c(Cl)c2)CC1)c1nc2ccccc2s1 [Compound 100]	≤ 0.1
c1ccc2c(N3CCN(CCNc4nc5ccccc5s4)CC3)cccc2c1 [Compound 119]	≤ 0.1
COc1ccc(N2CCN(CCNc3nc4ccccc4s3)CC2)cc1OC [Compound 23]	≤ 0.1
Fc1ccc(N2CCN(CCCNc3nc4ccccc4s3)CC2)cc1 [Compound 25]	≤ 0.1
c1ccc(N2CCN(CCNc3nc4ccccc4s3)CC2)cc1 [Compound 6, N-[2-(4-phenyl-1-piperazinyl)ethyl]-2-benzothiazolamine]	≤ 0.1
COc1ccc(N2CCN(CCNc3nc4ccccc4s3)CC2)cc1 [Compound 21]	≤ 0.1
Clc1ccc(N2CCN(CCN(Cc3ccccc3)c3nc4ccccc4s3)CC2)cc1Cl [Compound 106]	≤ 0.1
Clc1ccc(N2CCN(CCNc3nc4ccccc4s3)CC2)cc1 [Compound 134]	≤ 0.1
